Test results from patent US20030077740A1, “Presenilin/Crk binding polypeptides (PCBP) and methods of use thereof” (priority 2001, published 2003).
Residues, ends and D or L forms follow the SMILES beside them. *: point of attachment. Cbz = O=C(OCc1ccccc1)*

How the values were obtained:
APP695/PBP cells = experiment: protease inhibitors on APP secretion and intracellular accumulation; type: cell-based, rat
Experimental: Cells and transfection: Neuronal cell line B103 (Schubert et al. (1974) Nature, 249, 224-227) was grown in Dulbecco's modified Eagle's medium (DMEM) supplemented with 10% heat-inactivated fetal bovine serum (FBS). B103 cells were transfected with APP695 using G418 selection (Schubert et al. (1989) Neuron, 3: 689-694) and with various plasmids by Lepfectamin2000 (GIBCO; NJ, USA) using puromycin selection for PBP or hygromycin for PS1, respectively. The stably transfected cells were subsequently cloned and screened for protein expression by western blot analysis.
Western blotting, metabolic labeling and immunoprecipitation: For western blotting, cells were washed twice with ice-cold PBS and lysed in lysis buffer (1% Triton, 50 mM Hepes pH 7.5, 50 mM NaCl, 5 mM EDTA, 1 mM Na3VO4, 50 mM NaF, 10 mM Na4P2O7, plus a mixture of protease inhibitors (Complete Mini; Roche, Ind., USA). Protein concentrations were determined by Coomassie Plus (Pierce; IL, USA). The same amount of protein from each sample was separated on Novex pre-cast polyacrylamide gels (Invitrogen; CA, USA), and transferred to Immobulin membranes (Millipore; MA, USA). The membranes were blocked with 5% non-fat milk in Tris-buffered saline for 1 hour at room temperature. Following overnight incubation at 4° C. with primary antibodies, the antigens are detected with horseradish peroxidase-conjugated secondary antibodies (Bio-Rad; CA, USA; 1:20,000), an ECL kit (Amersham; NJ, USA), and exposed to films. For pulse-chase experiments, cells were grown to 80% confluency and incubated in methionine-free DMEM for 90 min. Cells were labeled with [^35]S-methionine (400 μCi/ml in methionine-free DMEM plus 5% dialyzed FBS) for 10 min at 37° C., and the medium was replaced with serum-free DMEM medium plus Ni-supplement (Sigma Inc.; MI, USA). The media were collected and cells were lysed after different time periods. Protein concentrations were determined and the same amounts of proteins were immunoprecipitated with antibodies at 4° C. overnight 25 μl of anti-mouse IgG agarose (Roche) was then added to each sample and incubated at 4° C. for 2 hours on a rocker platform. The immunoprecipitates were collected by centrifugation and washed 4 times with the washing buffer (0.1% Triton, 20 mM Hepes, 150 mM NaCl, 10% glycerol). The agarose beads were resuspended in 30 μl SDS-PAGE sample buffer boiled for 3 min to release the proteins. After 2 min of centrifugation, the supernatants were separated on 8% Tri-glycine gels. The gels were dried and subjected to autoradiography and quantitated by NIH image.
To independently verify the data on APP degradation, the effect of two protease inhibitors, leupeptin and MG132, on the secretion and the intracellular accumulation of APP was studied. Leupeptin is thought to inhibit lysosomal proteases, whereas MG132 is thought to inhibit ER membrane protein degradation through the ubiquitin-proteasome pathway (Soriano et al. (1999) J. Biol. Chem., 274: 32295-32300).

B103 (APP695) cells = experiment: APP secretion by transfected B103 (APP695) cells, Western blotting; type: cell-based, rat; details: overexpression of the protein
[1] = biological target: T1, large hydrophilic loop of PS1 (Homo sapiens, UniProt P49768); experiment: co-immunoprecipitation in 293T cells, PS1 loop; type: binding; details: immunoprecipitation with anti-TAG, 48 hrs after transfection, PS1-FLAG loop
T1 construct: and a large hydrophilic loop (amino acids 263-407); expressed in transfected cells; host or cells: 293T human kidney cells, pCIS2 expression vector
Experimental: To confirm the yeast two-hybrid data, the interaction between PBP and PSs was assayed in mammalian cells by immunoprecipitation. Human kidney 293-T cells, and monkey kidney COS-7 cells were cultured in Dulbecco's modified Eagle's medium supplemented with 10% fetal calf serum at 37° C. in a 10% CO2 atmosphere. A nine-amino acid TAG epitope ([…]) (SEQ ID NO:6) was incorporated in-frame at the 3′ end of the PBP cDNA (PBP-TAG), and an eight amino acid FLAG epitope ([…]) (SEQ ID NO:7) was attached in frame at the 5′ end of the large hydrophilic loop of PS1 cDNA and at the 3′ end of full length PS1 cDNA as described previously (Kimura, H., Proc. Natl. Acad. Sci. (USA), 90:2165-2169 (1993)). The resulting fragments were inserted into the pCIS2 expression vector (Genentech, San Francisco, Calif.) for transient or constitutive expression. […]
For immunoprecipitation of the large hydrophilic loop of PSs or Crk with PBP, cells were lysed in RIPA buffer (100 mM NaCl, 0.5% NP-40, 0.5% DOC, 0.1% SDS, 50 mM Tris, pH 7.5, 1 mM PMSF and 1 μg/ml aprotinin, 1 μg/l leupeptin) on ice for 30 min. […] The bound antibodies were detected by the ECL-plus chemiluminescence system (Amersham, Arlington Heights, Ill.).

PS1 = biological target: T2, PS1 (Homo sapiens, UniProt P49768); experiment: yeast two-hybrid interaction with PS1; type: binding; details: yeast two-hybrid assay
T2 construct: the large hydrophilic loop region of PS1 (amino acids 1-81, 429-468, 263-407, respectively) were inserted into the pGBT9 vector; expressed in transfected cells; host or cells: yeast Y190

PBP = details: PS fragment fused to GAL4-DNA binding domain, PBPα-GAL4 activation domain, β-galactosidase assay
Experimental: The yeast two-hybrid system was used to screen for cytoplasmic proteins that interact with PSs. […] Yeast (Y190) were co-transformed with each of the PS1 constructs and a mouse brain cDNA library fused to the GAL4 activation domain in the pGAD424 vector (Clontech). Transformants were plated on yeast drop-out media (Clontech) contain g 20 mM 3-amino-1,2,4-triazole (3-AT), and after 10 days of incubation at 30° C., colonies were transferred to Nitropure membrane Micron Separation Inc., Westboro, MA), and the X-gal assay was performed.
To determine the minimal sequence of the large hydrophilic loop of PS that is required for the interaction with PBP, three deletion fragments of the loop were inserted into pGBT9 and the interaction with PBP was examined using the yeast two-hybrid system.

[2] = 100 μM, either cells, data not shown

With CC(C)C[C@@H](C=O)NC(=O)[C@H](CC(C)C)NC(=O)[C@H](CC(C)C)NC(=O)OCc1ccccc1 [MG132] (Cbz-Leu-Leu-Leu-aldehyde) the APP secretion (APP695/PBP cells; 10 μM, APP695/PBP cells) was “significantly increased”, the “intracellular accumulation of APP” value (APP695/PBP cells; 10 μM, APP695/PBP cells) was “significantly increased” and the “secretion of APP in cells expressing PBP” value (APP695/PBP cells; after 16 hours of treatment) was “almost restored to the control level”.

CC(=O)N[C@@H](CC(C)C)C(=O)N[C@@H](CC(C)C)C(=O)N[C@H](C=O)CCCNC(=N)N [leupeptin] was tested, and the APP secretion (APP695/PBP cells; [2]) was “no effect” and the “intracellular accumulation of APP” value (APP695/PBP cells; [2]) was “no effect”.

For “Dock 180: protein 40% homologous to PBP, has a SH3 domain and interacts with Crk [reference compound]”, the “secretion of APP” value (B103 (APP695) cells) was “not affected”, the “interaction with PS1” value [1] was “did not show any interaction” and the “functional interaction with PS1” value (PS1) was “nor did it functionally interact”.

With EERGVKLGLGDFIFYSVLVGKA [consensus] the “interaction with PBP” value (PBP) was “exhibit an interaction”.
